Values quoted from earlier work, collected in patent publication US20060069047A1, “Antibiotic conjugates” (priority 2002, published 2006).

What was measured:
[1] = in vivo
PMN = conditions: intracellular/extracellular concentration, PMN incubated 1 h

half-life (t1/2) [1] [h] | cellular-to-extracellular concentration ratio (C/E) (phagocytic cells) | I/E ratio (PMN) | SMILES
~68 | ~500 | 517 | CC[C@H]1OC(=O)[C@H](C)[C@@H](O[C@H]2C[C@@](C)(OC)[C@@H](O)[C@H](C)O2)[C@H](C)[C@@H](O[C@@H]2O[C@H](C)C[C@H](N(C)C)[C@H]2O)[C@](C)(O)C[C@@H](C)CN(C)[C@H](C)[C@@H](O)[C@]1(C)O [Azithromycin]
 |  | 4.8 | C[C@H]1COc2c(N3CCN(C)CC3)c(F)cc3c(=O)c(C(=O)O)cn1c23 [Levofloxacin]
 |  | 12.0 | COc1c(N2C[C@@H]3CCCN[C@@H]3C2)c(F)cc2c(=O)c(C(=O)O)cn(C3CC3)c12 [Moxifloxacin]
 |  | 0.16 | CC1(C)SC2C(NC(=O)Cc3ccccc3)C(=O)N2C1C(=O)O (stereo not shown) [Penicillin G, 3,3-Dimethyl-7-oxo-6-phenylacetylamino-4-thia-1-aza-bicyclo[3.2.0]heptane-2-carboxylic acid]
 |  | 197 | CC[C@H]1OC(=O)[C@H](C)C(=O)[C@H](C)[C@@H](O[C@@H]2O[C@H](C)C[C@H](N(C)C)[C@H]2O)[C@](C)(OC)C[C@@H](C)C(=O)[C@H](C)[C@H]2N(CCCCn3cnc(-c4cccnc4)c3)C(=O)O[C@]12C [Telithromycin]
